From US20230099837A1, “COMPOSITIONS AND METHODS FOR TREATING NEURODEGENERATIVE DISORDERS WITH RIPK1/RIPK3 INHIBITORS” (Arizona Board of Regents on Behalf of the University of …, priority 2020, published 2023)
“Also recorded” adds a separate entry of the source.

Key:
Format in all cases: cell-based
Phospho-MLKL (Ser358) = assay: Western blot, phosphorylated MLKL in HT-29 cells; details: 100 μM, necroptosis induced 3 hrs, normalized to b-actin
Experimental: RIPK3 is known to activate MLKL through phosphorylation at Ser358 for necroptotic cell death (see, Sun, L. M. et al. Cell 148, 213-227 (2012)). Therefore, the amount of phosphorylated MLKL at Ser358 was used to determine if any inhibition of MLKL activation occurred.
(§1) HT-29 cells were grown as described above and plated on a 6 well plate. After incubating overnight, cells were incubated with 100 μM of noted compounds in FIG. 3 for 30 min._Necroptosis was induced in the cells for 3 hours, as described in Necroptosis flow assay section, before harvesting with 75 μL RIPA buffer system (Santa Cruz sc-24948) containing 2 mM PMSF, 1 mM Sodium Orthovanadate, and 1% final volume of protease inhibitor. Samples were_centrifuged for 10 min at 20000×g and 4° C. The supernatant was mixed with 25 μL of NuPAGE_LDS sample buffer dye 4× containing 0.1 M DTT and heated for 10 min at 90° C. SDS-PAGE_separation and membrane transfer were performed as described under the CETSA protocol. […]
(§2) The secondary Anti-rabbit IgG, HRP-linked antibody (Cell Signaling Technology #7074S) was_used at a dilution of 1:1500 in PBS-T with 5% BSA. […] Data_were quantified with ImageLab™ software. […]

Phospho-RIPK3 (Ser227) = assay: Western blot, phosphorylated RIPK3 in HT-29 cells; details: 100 μM, necroptosis induced 3 hrs, normalized to b-actin
Experimental: As previously reported, RIPK3 activation from necroptotic stimulus can be readily and accurately measured by phosphorylation at Ser227 (see, Chen, W. Z. et al. Journal of Biological Chemistry 288, 16247-16261 (2013)).
as §1, §2

RIPK1 = assay: Western blot, total RIPK1 in HT-29 cells; details: 100 μM, necroptosis induced 3 hrs, normalized to b-actin
Experimental: (§3) If RMITC03 and RMITC09 are disrupting the protein-protein interactions between RIPK3 and MLKL, then the effect of such inhibition should be observed in the activation of MLKL. To test this, HT-29 cells were treated with 100 μM of each compound for 30 min before necroptosis induction. Cells were harvested after 3 hrs with RIPA buffer in order to determine amount of inhibition at each stage of the necroptotic signaling molecules. When comparing the amounts of RIPK1, RIPK3, and MLKL in DMSO treated necroptosis activated cells (T/S/Z) against non necroptosis activated cells (Non-treated samples), there is no statistically significant difference in the amounts of these proteins (FIG. 6A-B).
(§4) HT-29 cells were grown as described above and plated on a 6 well plate. After incubating overnight, cells were incubated with 100 μM of noted compounds in FIG. 3 for 30 min._Necroptosis was induced in the cells for 3 hours, as described in Necroptosis flow assay section, before harvesting with 75 μL RIPA buffer system (Santa Cruz sc-24948) containing 2 mM PMSF, 1 mM Sodium Orthovanadate, and 1% final volume of protease inhibitor. Samples were_centrifuged for 10 min at 20000×g and 4° C. […]
as §2

MLKL = assay: Western blot, total MLKL in HT-29 cells; details: 100 μM, necroptosis induced 3 hrs, normalized to b-actin
Experimental: as §3, §4, §2

Phospho-RIPK1 (Ser166) = assay: Western blot, phosphorylated RIPK1 in HT-29 cells; details: 100 μM, necroptosis induced 3 hrs, normalized to b-actin
From the text: Autophosphorylation of RIPK1 at Ser166 facilitates RIPK1 kinase activity to induce cell_death (see, Meng, H. Y. et al. Proceedings of the National Academy of Sciences of the United States of America 115, E2001-E2009 (2018)). As such, phosphorylation at Ser166 was used to detect activation of necroptosis. […] Similarly, in the non-necroptosis activated on treated sample, there is also no phosphorylated RIPK1 signal. When comparing the DMSO sample to RMITC03 and RMITC09 treated samples, there is a large amount of activated phosphorylated RIPK1 with no difference between the DMSO control and RMITC03 and RMITC09 compounds.
as §4, §2

RIPK3 = assay: Western blot, total RIPK3 in HT-29 cells; details: 100 μM, necroptosis induced 3 hrs, normalized to b-actin
Experimental: as §3, §4, §2

HT-29 cells = assay: Necroptosis flow assay (Annexin V / propidium iodide staining, flow cytometry); details: 100 μM compound 30 min before induction with TNF-a/Z-VAD-fmk/SM-164 for 7 hours, vs DMSO
Experimental: Necroptosis was allowed to proceed for 7 hours (hrs) before Annexin V and propidium iodide staining and flow cytometry analysis (FIG. 3). Cells staining positive for either Annexin V or propidium iodide were quantified as necroptotic cells (FIG. 1F). […] Docking results from RMITC03 and RMITC09 indicate most interactions are driven through hydrophobic interactions with a few hydrogen bonds interacting with the backbone of the protein (FIG. 1D-E).
HT-29 cells were grown in DMEM (Corning 10-013-CV) with 10% FBS (HyClone SH3091003)_and incubated at 37° C. and 5% CO2. […] Necroptosis was induced with 25 ng/mL TNF-a (Prospec CYT-223), 20_μM Z-VAD-fmk (AdooQ Bioscience A12373), and 0.1 μM SM-164 (AdooQ Bioscience A15800) for 7 hours in an incubator at 37° C. and 5% CO2. HT-29 cells were trypsinized (Corning 25-053-CI) and washed with DPBS (Corning 21-031-CV) (see, Bundscherer, A. et al. Anticancer Research 33, 3201-3204 (2013)). Cells were processed and stained with Annexin V and propidium iodide as described by manufacturer's protocol in the eBioscience™ Annexin V-FITC Apoptosis Detection Kit (Invitrogen BMS500FI-500). Flow cytometry was performed with MACSQuant® Analyzer 10 and data was processed with Flowlogic™ flow cytometry analysis software.

Row | SMILES | phosphorylated MLKL (Ser358) compared to DMSO (Phospho-MLKL (Ser358)) | phosphorylated RIPK3 (Ser227) compared to DMSO (Phospho-RIPK3 (Ser227)) | amount of RIPK1 compared to DMSO (RIPK1) | amount of MLKL compared to DMSO (MLKL) | phosphorylated RIPK1 (Ser166) signal compared to DMSO (Phospho-RIPK1 (Ser166)) | amount of RIPK3 compared to DMSO (RIPK3) | inhibitory effect on necroptosis (cells positive for Annexin V or propidium iodide) (HT-29 cells)
1 | CN1C(=O)C(Cc2c[nH]c3ccccc23)NC1=S (stereo not shown) [Nec-1] | significant decrease; also recorded: lowest levels of phosphorylated MLKL | did not completely inhibit activation of phosphorylated RIPK3 | no significant difference | no significant difference | significant decrease; also recorded: no observable phosphorylated RIPK11 signal | no significant difference | –
2 | CC(C)S(=O)(=O)c1ccc2nccc(Nc3ccc4scnc4c3)c2c1 [GSK'872] | significant decrease; also recorded: lowest levels of phosphorylated MLKL | significant decrease; also recorded: Inhibition of activated phosphorylated RIPK3 at Ser227 | no significant difference | no significant difference | significant decrease; also recorded: no observable phosphorylated RIPK11 signal | no significant difference | largest inhibition of necroptosis
